Here are results for two compounds from US6949250B2, “Selective algaecides for control of cyanochloronta” (The United States of America as represented by the …, priority 2002, dated 2005).

SMILES strings stand for the structures.

Series [1] in a line: Detection of DNA1-19-1 in pond water samples. The series is classed as physicochemical. The conditions noted are these: samples collected at and after 24 hours after application to water within limnocorrals. The text has this:
The attempts to develop a reproducible analytical method to determine the levels of DNA1-19-1 in the pond water were unsuccessful. DNA1-19-1 is believed to bind quickly to suspended soil particles due to the positively charged nature of the 2-methylamino chain; evident by the lack of detection of DNA1-19-1 in the water. Since the levels of suspended soil particles in each water sample varied and an accurate measurement of the soil particles present in each sample could not be obtained, the consistent recoveries of DNA1-19-1 from the particulate portions of water samples could not be achieved.

The subject of the next series is Oscillatoria perornata. Briefly: DNA1-19-1 first pond efficacy study (limnocorrals): O. perornata abundance. The format is in vivo.
For another series, the system named is diatoms. Put plainly: DNA2-59-1 second pond efficacy study: diatom abundance. The series is classed as in vivo, diatoms (division Chromophyta, class Bacillariophyceae). As to conditions: 0.3 μM. On the procedure:
(§1) The method described by Schrader et al. (2000) was used to determine the potential for using the anthraquinone derivatives as selective algicides in catfish aquaculture ponds. All catfish ponds used in efficacy tests were maintained using commercial pond management practices and were located at the Thad Cochran Pond Facility, Mississippi State University, Stoneville, Miss. Anthraquinone analogs were dissolved in deionized water before application to water within the limnocorrals.
(§2) Limnocorrals in which test compound was applied to the enclosed water were randomly selected, and control (no test compound applied) limnocorrals were included in each efficacy study. For each sampling, two water samples (250 mL) were obtained from within each limnocorral (approximately 6-8 cm below the water surface and from opposite sides of each limnocorral) and mixed together in a 500 mL sample bottle to provide a representative sample of the water contained within the limnocorral.
In the second efficacy test with DNA2-59-1, six limnocorrals (1.53 m in diameter and 1.53 m high) were placed in a 0.1-ha earthen pond containing a heavy bloom of O. perornata. The same delay in mixing the water within the limnocorrals used in the first efficacy study was utilized. Water within three randomly selected limnocorrals received an application rate of 0.3 μM DNA2-59-1, and the other three limnocorrals were controls. […]

Series [2] in a line: DNA2-59-1 third efficacy study: dissipation rate and half-life in pond water (HPLC). The conditions noted are these: for DNA2-59-1 Levels in Pond Water: third study, 0.3 μM applied. The series is classed as physicochemical. The protocol: For the third efficacy test with DNA2-59-1, twelve limnocorrals (2.44 m in diameter and 1.53 m high) were placed in a 4-ha earthen pond containing a bloom of O. perornata. The same procedures, application rate (0.3 μM), and methods used in the second efficacy test of DNA2-59-1 were used except six limnocorrals were randomly selected to receive an application rate of 0.3 μM DNA2-59-1 while the other six limnocorrals were controls. Water samples were collected before application of DNA2-59-1, 20 minutes after application, and at days 1, 2, 3, 4, and 7. The same tests and methods used in the first efficacy testing of DNA2-59-1 were used.
Approximately 15 mL each of water samples from DNA2-59-1 efficacy testing that were designated for HPLC analysis were placed in scintillation vials and held in a freezer. Water samples were later melted at room temperature, and 5 mL of each sample was then filtered through a nylon membrane filter (13 mm diameter and 0.45 μm; Whatman International, Maidstone, England) using a 5 mL syringe (Hamilton Company, Reno, Nev.) and a 13 mm syringe filter holder (Fisher Scientific Company, Pittsburgh, Pa.). Filtrate (1 mL) was placed in 2 mL vials and capped using teflon/rubber septum caps (National Scientific Company, Jeddah, Saudia Arabia). The filter paper was removed and placed in a scintillation vial to which 2 mL of HPLC grade methanol (Fisher Scientific, Fair Lawn, N.J.) was added and then sonicated for 5 minutes. The methanol solution was then filtered using a nylon membrane acrodisc (25 mm and 0.45 μm; Pall Life Sciences, Ann Arbor, Mich.), and the methanol filtrate was placed in separate 2 mL vials.
Filtrate samples were analyzed using a Waters 2690 Alliance HPLC containing a 996 PDA detector and a XTerra RP 18 column (150 mm×4.6 mm, 5 μm particle size; Waters Corporation, Milford, Mass.). The mobile phase consisted of 25 mM sodium dihydrogenphosphate in 0.1% phosphoric acid (A) and acetonitrile (B). The gradient was from 80A/20B in 15 minutes to 40A/60B. After each run, a 5 minute wash with methanol was performed, followed by equilibrating the column for 10 minutes with 80A/20B. The temperature was set at 40° C., the flow rate was 1 mL/minute, the detection wavelength 256 nm, and the sample injection volume was 10 μL. All solvents used were HPLC grade (Fisher Scientific, Fair Lawn, N.J.).
Means and standard deviations of data were determined and graphed. The graphs were used to help determine the half-life of DNA2-59-1 in the pond water. Because of the short duration of the first efficacy study, the half-life of DNA2-59-1 in the pond water could not be determined.

The test system of another series is geosmin. Put plainly: DNA2-59-1 first pond efficacy study: geosmin levels. As to conditions: 1 μM. The format is in vivo. The protocol:
as §1
Limnocorrals in which test compound was applied to the enclosed water were randomly selected, and control (no test compound applied) limnocorrals were included in each efficacy study. […]
In the first study, application rates of 0.1 μM (37.7 μg/L), 0.3 μM ([…]), and 1.0 μM (377 μg/L) of DNA2-59-1 were tested using limnocorrals (three replicates per concentration) that were of the same type used for testing DNA1-19-1. […] Water samples were also analyzed to determine the persistence of DNA2-59-1 in the pond water, and this analysis was performed by using high-pressure liquid chromatography (HPLC) (method and results are described later).

The test system of the next series is Raphidiopsis brookii. Put plainly: DNA2-59-1 third pond efficacy study: Raphidiopsis brookii abundance. The series is classed as in vivo. As to conditions: 0.3 μM, one day after application. On the procedure:
as §1, §2
For the third efficacy test with DNA2-59-1, twelve limnocorrals (2.44 m in diameter and 1.53 m high) were placed in a 4-ha earthen pond containing a bloom of O. perornata. […]

In general, half-life refers to the time needed for the level to fall by half in the phase considered. A higher half-life goes with slow loss.

In the case of `CCN(CC)CCCC(C)NCc1ccc2c(c1)C(=O)c1ccccc1C2=O.O=P(O)(O)O.O=P(O)(O)O` (stereo not drawn) [DNA1-19-1, 2-[methylamino-N-(1′-methyl-4′-N,N-diethylaminobutyl)]-9,10-anthraquinone diphosphate], the “detection in soluble fractions of water samples (result in words)” value in series [1] is reported as “could not be detected”. Also, the “selectively reducing numbers of O. perornata and MIB levels in pond water (result in words)” value with Oscillatoria perornata (applied at 2 μM) is listed as “effective”. In addition, in the series on Oscillatoria perornata (first study, 2 μM, numbers began to increase within 3 days), the “Numbers of filaments of O. perornata (result in words)” value was “significantly reduced”.

In the case of `CC(C)NCc1ccc2c(c1)C(=O)c1ccccc1C2=O` [DNA2-59-1, 2-[methylamino-N-(1′-methylethyl)]-9,10-anthraquinone monophosphate], the “diatoms (result in words)” value in the series on diatoms was “not significantly affected”. In addition, the half-life at 0.3 μM in series [2] (pond water in limnocorrals (earthen catfish pond), third efficacy study) was 19 h. Moreover, the DNA2-59-1 Levels in Pond Water in series [2] (0 hours) was found to be 90.6 ± 7.9 µg/L; in series [2] (24 hours) it was 31.5 ± 4.4 µg/L; in series [2] (48 hours), 9.2 ± 3.2 µg/L; in series [2] (72 hours) it was 2.2 ± 0.5 µg/L; in series [2] (96 hours), 0 µg/L. The “decrease of geosmin levels compared to controls and 0.1 and 0.3 μM (result in words)” value in the series on geosmin was “to a greater degree and significantly more”. For the same compound, the “Numbers of Raphidiopsis brookii (result in words)” value with Raphidiopsis brookii was “significantly reduced”.
